# Laboratory results as given in PubChem BioAssay (NCI).
#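 Briefly, cells in 96-well plates were exposed to five compound concentrations for 48 h, and endpoints were estimated by linear interpolation. GI50: concentration for 50% inhibition of growth. TGI: total growth inhibition.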
# Experiments:
# Assay in all cases: growth of human tumour cells (NCI), 48 h
# SNB-75 CNS = test system: SNB-75 CNS
# SF-268 CNS = test system: SF-268 CNS
# U251 CNS = test system: U251 CNS
# MOLT-4 leukemia = test system: MOLT-4 leukemia
# COLO 205 colon = test system: COLO 205 colon
# SNB-19 CNS = test system: SNB-19 CNS
# CCRF-CEM leukemia = test system: CCRF-CEM leukemia
# A498 renal = test system: A498 renal
# HCT-116 colon = test system: HCT-116 colon
# NCI-H460 lung = test system: NCI-H460 lung
# MDA-MB-231 breast = test system: MDA-MB-231 breast
# HOP-92 NSCLC = test system: HOP-92 NSCLC
# LOX IMVI melanoma = test system: LOX IMVI melanoma
# EKVX NSCLC = test system: EKVX NSCLC
# T-47D breast = test system: T-47D breast
# K-562 leukemia = test system: K-562 leukemia
# MALME-3M melanoma = test system: MALME-3M melanoma
# NCI-H522 lung = test system: NCI-H522 lung
# RPMI-8226 leukemia = test system: RPMI-8226 leukemia
# MCF7 breast = test system: MCF7 breast
# HS 578T breast = test system: HS 578T breast
# DU-145 prostate = test system: DU-145 prostate
# A549 NSCLC = test system: A549 NSCLC
# HL-60(TB) leukemia = test system: HL-60(TB) leukemia
# HCT-15 colon = test system: HCT-15 colon
# SF-295 CNS = test system: SF-295 CNS
# BT-549 breast = test system: BT-549 breast
# UACC-257 melanoma = test system: UACC-257 melanoma
# KM12 colon = test system: KM12 colon
# M14 melanoma = test system: M14 melanoma
# NCI/ADR-RES ovarian = test system: NCI/ADR-RES ovarian
# OVCAR-4 ovarian = test system: OVCAR-4 ovarian
# SR leukemia = test system: SR leukemia
# UO-31 renal = test system: UO-31 renal
# NCI-H23 lung = test system: NCI-H23 lung
# MDA-MB-435 = test system: MDA-MB-435
# SN12C renal = test system: SN12C renal
# HCC-2998 colon = test system: HCC-2998 colon
# SK-MEL-2 melanoma = test system: SK-MEL-2 melanoma
# OVCAR-8 ovarian = test system: OVCAR-8 ovarian
# ACHN renal = test system: ACHN renal
# SK-MEL-28 melanoma = test system: SK-MEL-28 melanoma
# OVCAR-3 ovarian = test system: OVCAR-3 ovarian
# UACC-62 melanoma = test system: UACC-62 melanoma
# SK-OV-3 ovarian = test system: SK-OV-3 ovarian
# NCI-H226 lung = test system: NCI-H226 lung
# SK-MEL-5 melanoma = test system: SK-MEL-5 melanoma
# RXF 393 renal = test system: RXF 393 renal
# OVCAR-5 ovarian = test system: OVCAR-5 ovarian
# IGROV1 ovarian = test system: IGROV1 ovarian
# HT29 colon = test system: HT29 colon
# HOP-62 NSCLC = test system: HOP-62 NSCLC
# PC-3 prostate = test system: PC-3 prostate
# 786-0 renal = test system: 786-0 renal
# CAKI-1 renal = test system: CAKI-1 renal
# SF-539 CNS = test system: SF-539 CNS
# TK-10 renal = test system: TK-10 renal
compound,measurement,setting,value
CC(C)(C)OC(=O)CC(NC(=O)OCc1ccccc1)NC(=O)OC(C)(C)C (configuration not stated),GI50,SNB-75 CNS,20.8 µg/mL
same,GI50,SF-268 CNS,87.1 µg/mL
same,GI50,U251 CNS,67.5 µg/mL
same,GI50,MOLT-4 leukemia,23.5 µg/mL
same,TGI,MOLT-4 leukemia,55.6 µg/mL
same,GI50,COLO 205 colon,50.6 µg/mL
same,GI50,SNB-19 CNS,76.2 µg/mL
same,GI50,CCRF-CEM leukemia,35.4 µg/mL
same,GI50,A498 renal,76.4 µg/mL
same,GI50,HCT-116 colon,52.1 µg/mL
same,GI50,NCI-H460 lung,39.8 µg/mL
same,GI50,MDA-MB-231 breast,52.8 µg/mL
same,GI50,HOP-92 NSCLC,69.2 µg/mL
same,GI50,LOX IMVI melanoma,71.2 µg/mL
same,GI50,EKVX NSCLC,38.8 µg/mL
same,GI50,T-47D breast,26 µg/mL
same,GI50,K-562 leukemia,38.2 µg/mL
same,GI50,MALME-3M melanoma,46 µg/mL
same,GI50,NCI-H522 lung,32.9 µg/mL
same,GI50,RPMI-8226 leukemia,32.8 µg/mL
same,GI50,MCF7 breast,44.1 µg/mL
same,GI50,HS 578T breast,85.4 µg/mL
same,GI50,DU-145 prostate,72.3 µg/mL
same,GI50,A549 NSCLC,35.2 µg/mL
same,GI50,HL-60(TB) leukemia,20.8 µg/mL
same,TGI,HL-60(TB) leukemia,50.7 µg/mL
same,GI50,HCT-15 colon,56 µg/mL
same,GI50,SF-295 CNS,46.2 µg/mL
same,GI50,BT-549 breast,14.2 µg/mL
same,GI50,UACC-257 melanoma,35.8 µg/mL
same,GI50,KM12 colon,40.3 µg/mL
same,GI50,M14 melanoma,56.8 µg/mL
same,GI50,NCI/ADR-RES ovarian,33.5 µg/mL
same,GI50,OVCAR-4 ovarian,78.9 µg/mL
same,GI50,SR leukemia,27.8 µg/mL
same,TGI,SR leukemia,67.7 µg/mL
same,GI50,UO-31 renal,27 µg/mL
same,GI50,NCI-H23 lung,39.1 µg/mL
same,GI50,MDA-MB-435,87.9 µg/mL
same,GI50,SN12C renal,51.9 µg/mL
same,GI50,HCC-2998 colon,94.4 µg/mL
same,GI50,SK-MEL-2 melanoma,48.1 µg/mL
same,GI50,OVCAR-8 ovarian,57.5 µg/mL
same,GI50,ACHN renal,51.5 µg/mL
same,GI50,SK-MEL-28 melanoma,67.6 µg/mL
same,GI50,OVCAR-3 ovarian,62.7 µg/mL
same,GI50,UACC-62 melanoma,57.2 µg/mL
O=S(=O)(Nc1ccccc1)c1ccc(C2CC3(Cl)C(Cl)=C(Cl)C2(Cl)C3(Cl)Cl)cc1 (configuration not stated),GI50,SNB-75 CNS,2.61 µM
same,TGI,SNB-75 CNS,9.09 µM
same,GI50,SF-268 CNS,3.8 µM
same,TGI,SF-268 CNS,12.8 µM
same,GI50,SK-OV-3 ovarian,3.45 µM
same,TGI,SK-OV-3 ovarian,10.1 µM
same,GI50,U251 CNS,2.25 µM
same,TGI,U251 CNS,5.52 µM
same,GI50,MOLT-4 leukemia,2.5 µM
same,TGI,MOLT-4 leukemia,6.84 µM
same,GI50,NCI-H226 lung,1.87 µM
same,TGI,NCI-H226 lung,4.47 µM
same,GI50,SK-MEL-5 melanoma,1.93 µM
same,TGI,SK-MEL-5 melanoma,3.74 µM
same,GI50,COLO 205 colon,1.98 µM
same,TGI,COLO 205 colon,3.48 µM
same,GI50,SNB-19 CNS,3.74 µM
same,TGI,SNB-19 CNS,13.6 µM
same,GI50,CCRF-CEM leukemia,3.24 µM
same,TGI,CCRF-CEM leukemia,11.9 µM
same,GI50,A498 renal,2.32 µM
same,TGI,A498 renal,6.29 µM
same,GI50,HCT-116 colon,1.81 µM
same,TGI,HCT-116 colon,3.44 µM
same,GI50,NCI-H460 lung,1.96 µM
same,TGI,NCI-H460 lung,3.72 µM
same,GI50,MDA-MB-231 breast,3.44 µM
same,TGI,MDA-MB-231 breast,11.3 µM
same,GI50,HOP-92 NSCLC,1.84 µM
same,TGI,HOP-92 NSCLC,5.08 µM
same,GI50,LOX IMVI melanoma,1.84 µM
same,TGI,LOX IMVI melanoma,3.47 µM
same,GI50,RXF 393 renal,1.79 µM
same,TGI,RXF 393 renal,3.38 µM
same,GI50,EKVX NSCLC,3.02 µM
same,TGI,EKVX NSCLC,8.37 µM
same,GI50,OVCAR-5 ovarian,2.36 µM
same,TGI,OVCAR-5 ovarian,5.46 µM
same,GI50,T-47D breast,2.54 µM
same,TGI,T-47D breast,6.82 µM
same,GI50,K-562 leukemia,2.51 µM
same,TGI,K-562 leukemia,9.84 µM
same,GI50,MALME-3M melanoma,2.53 µM
same,TGI,MALME-3M melanoma,7.11 µM
same,GI50,NCI-H522 lung,2.27 µM
same,TGI,NCI-H522 lung,5.67 µM
same,GI50,RPMI-8226 leukemia,2.53 µM
same,TGI,RPMI-8226 leukemia,7.28 µM
same,GI50,MCF7 breast,2.59 µM
same,TGI,MCF7 breast,7.67 µM
same,GI50,IGROV1 ovarian,2.24 µM
same,TGI,IGROV1 ovarian,5.13 µM
same,GI50,DU-145 prostate,3.58 µM
same,TGI,DU-145 prostate,10.1 µM
same,GI50,HT29 colon,2.37 µM
same,TGI,HT29 colon,5.41 µM
same,GI50,A549 NSCLC,3.11 µM
same,TGI,A549 NSCLC,11 µM
same,GI50,HL-60(TB) leukemia,2.42 µM
same,TGI,HL-60(TB) leukemia,5.79 µM
same,GI50,HOP-62 NSCLC,2.52 µM
same,TGI,HOP-62 NSCLC,5.93 µM
same,GI50,HCT-15 colon,3.13 µM
same,TGI,HCT-15 colon,10.2 µM
same,GI50,SF-295 CNS,2.21 µM
same,TGI,SF-295 CNS,5.97 µM
same,GI50,BT-549 breast,2.46 µM
same,TGI,BT-549 breast,5.85 µM
same,GI50,PC-3 prostate,2.74 µM
same,TGI,PC-3 prostate,10.2 µM
same,GI50,UACC-257 melanoma,2.64 µM
same,TGI,UACC-257 melanoma,6.27 µM
same,GI50,KM12 colon,2.15 µM
same,TGI,KM12 colon,4.12 µM
same,GI50,M14 melanoma,2.19 µM
same,TGI,M14 melanoma,4.61 µM
same,GI50,NCI/ADR-RES ovarian,2.95 µM
same,TGI,NCI/ADR-RES ovarian,7.98 µM
same,GI50,OVCAR-4 ovarian,3.37 µM
same,TGI,OVCAR-4 ovarian,11.1 µM
same,GI50,SR leukemia,2.08 µM
same,TGI,SR leukemia,5.2 µM
same,GI50,786-0 renal,2.15 µM
same,TGI,786-0 renal,4.23 µM
same,GI50,UO-31 renal,2.09 µM
same,TGI,UO-31 renal,6.72 µM
same,GI50,NCI-H23 lung,2.8 µM
same,TGI,NCI-H23 lung,7.35 µM
same,GI50,MDA-MB-435,2.34 µM
same,TGI,MDA-MB-435,5.44 µM
same,GI50,CAKI-1 renal,2.16 µM
same,TGI,CAKI-1 renal,6.27 µM
same,GI50,SN12C renal,1.71 µM
same,TGI,SN12C renal,3.3 µM
same,GI50,HCC-2998 colon,1.81 µM
same,TGI,HCC-2998 colon,3.46 µM
same,GI50,SF-539 CNS,2.32 µM
same,TGI,SF-539 CNS,5.79 µM
same,GI50,TK-10 renal,4.4 µM
same,TGI,TK-10 renal,14.6 µM
same,GI50,SK-MEL-2 melanoma,2.23 µM
same,TGI,SK-MEL-2 melanoma,4.16 µM
same,GI50,OVCAR-8 ovarian,3.52 µM
same,TGI,OVCAR-8 ovarian,10.9 µM
same,GI50,ACHN renal,3.37 µM
same,TGI,ACHN renal,10.5 µM
same,GI50,OVCAR-3 ovarian,2.18 µM
same,TGI,OVCAR-3 ovarian,4.13 µM
same,GI50,UACC-62 melanoma,1.66 µM
same,TGI,UACC-62 melanoma,3.58 µM
